Measured values: patent US20100003217A1, “Compounds and Pharmaceutical Compositions for the Treatment of Viral Infections” (priority 2008, published 2010)

Legend:
[1] = test system: HCV genotype 1b replicon (Zluc cells); assay: HCV luciferase replicon assay; type: cell-based, hepatitis C virus; conditions: 3 days
Description: The HCV luciferase replicon assay measures the ability of a test compound to inhibit HCV replication in cell culture after 3 days of treatment in a human hepatoma cell line (Huh-7) bearing the HCV genotype 1b replicon and a luciferase-neomycin phosphotransferase fusion gene. The inhibition of HCV replication was measured by quantification of luciferase protein expression. The HCV luciferase replicon was constructed by fusing a luciferase gene to the amino terminus of the neomycin phosphotransferase gene of the ZS11 HCV replicon. The ZS11 HCV replicon (Zhu Q, Guo J-T, and Seeger C, 2003) is derived from the SP1 replicon, but contains three cell culture-adapted mutations: E1202G (NS3), S22041 (NS5A), and D2254E (NS5A). These mutations allow for efficient in vitro replication. The luciferase reporter gene was amplified from the pGL4.13[luc2/SV40] vector (Promega Corp.). The replicon resulting from the luciferase-neomycin fusion (ZS11-luc) was stably-transfected into Huh-7 cells, yielding the Zluc cell line.
(§1) The luciferase replicon assay is summarized as follows: Solid white 96-well tissue culture plates (BD Falcon) were seeded with Zluc cells. Antiviral compound solutions were made up freshly in medium as 2×-concentrated stocks. Eight additional 3-fold drug dilutions were prepared from these stocks in medium for a total of 9 dilutions. At least four hours after Zluc cells were seeded, drug treatment was initiated by adding one volume of each 2×-concentrated drug dilution to one volume of cells/medium in the tissue culture plates. Cells were then incubated for 3 days at 37° C./5% CO2.
The media/compound was then removed from the plates and the ONE-glo Luciferase assay reagent (Promega) was added to each well. The assay plates were shaken for 3 minutes at room temperature and luciferase activity for each well was measured with a 1 sec read time on the Victor^3V multilabel counter using a 700 nm cut-off filter (Perkin Elmer). EC50 values were calculated from dose response curves from the resulting best-fit equations determined by Microsoft Excel and XLfit 4.1 software.

[2] = test system: GS4.1 cells; assay: Cytotoxicity assay (MTS), GS4.1 cells; type: cell-based, human; conditions: 3 days (NS4A-ELISA Assay)
Description: (§2) The cytotoxicity assay measures the viability of cells after treatment with a test compound for 3 days in either GS4.1 cells or Zluc cells. […] The cytotoxicity assay is summarized as follows. Ninety-six-well tissue culture plates were seeded with GS4.1 or Zluc cells. Antiviral compound solutions were made up freshly in medium as 2×-concentrated stocks. Eight additional 3-fold drug dilutions were prepared from these stocks in medium for a total of 9 dilutions. At least four hours after the cells were seeded, drug treatment was initiated by adding one volume of each 2×-concentrated drug dilution to one volume of cells/medium in the tissue culture plates. Cells were then incubated for 3 days at 37° C./5% CO2. After 3 days of treatment, the CellTiter 96® Aqueous One Solution cell proliferation assay (Promega) was performed by adding the MTS solution to each well. The plates were then incubated at 37° C./5% CO2 for 3.5 hours. Plates were then read in a Victor^3V 1420 multilabel counter (Perkin Elmer) and CC50 concentrations were determined using Microsoft Excel and XLfit 4.1 software.

[3] = test system: Zluc cells; assay: Cytotoxicity assay (MTS), Zluc cells; type: cell-based, human
Description: as §2

[4] = test system: HCV genotype 1b replicon (GS4.1 cells); assay: HCV replicon assay (NS4A ELISA); type: cell-based, hepatitis C virus; conditions: 3 days
Description: The biological activity of Compound 1, diastereomer 1 and diastereomer 2 was measured by monitoring expression of the NS4A protein by enzyme-linked immunosorbent assay (ELISA) and by luciferase assay as described below:
The HCV replicon assay measures the ability of a test compound to inhibit HCV replication in cell culture after 3 days of treatment in a human hepatoma cell line (Huh-7) bearing the HCV genotype 1b replicon (GS4.1 cells). The inhibition of HCV replication was measured by quantification of viral NS4A protein using an enzyme-linked immunosorbent assay (ELISA). […] Additionally, the replicon contains the neomycin phosphotransferase gene under the control of the HCV promoter (Source: Dr. Christoph Seeger, Fox Chase Cancer Center, Philadelphia, Pa.).
as §1, with “The NS4A ELISA” for “The luciferase replicon”, “as follows. Ninety-six-well” for “as follows: Solid white 96-well”, “plates” for “plates (BD Falcon)”, “with GS4.1” for “with Zluc”, “after GS4.1” for “after Zluc”, “each 2× concentrated” for “each 2×-concentrated”
The media/compound was then removed from the plates and cells were fixed with acetone:methanol, washed three times with a wash solution, and then blocked for 1 hour with 10% fetal bovine serum in a balanced salt solution. Cells were washed three times and incubated with an anti-hepatitis C NS4A monoclonal antibody (Virogen Corp.) for 2 hours at 37° C. […] The reaction was stopped with diluted sulfuric acid (Mallinckrodt Chemicals) and absorbance measured on a Victor^3V 1420 multilabel counter (Perkin Elmer). EC50 values were calculated from dose response curves from the resulting best-fit equations determined by Microsoft Excel and XLfit 4.1 software.

[5] = test system: S282T HCV replicon (184R-D2 cells); assay: microbe, parasite or virus in culture; conditions: Hepatitis C virus
Description: (§3) 1. […] Huh-7 cells were seeded into column 1 of each plate at a similar density.
(§4) 2. […] Eight additional 3-fold serial dilutions of each compound were prepared from the 2× stock in assay medium. Final drug concentrations ranged from 100 to 0.015 μM.
(§5) 3. […] This setup was run in duplicate in each 96-well plate.
(§6) 4. Cells were incubated with inhibitors for three days at 37° C./5% CO2.
(§7) 1. After three days of drug treatment, media was removed from the plates via gentle tapping and the cells were fixed to the plates with 100 μL/well of 1:1 acetone:methanol.
(§8) 2. After one minute of incubation at room temperature, plates were washed three times with 100 μL/well of ELISA wash solution and then blocked with 150 μL/well of 10% FBS-TNE.
(§9) 3. After a one hour incubation at room temperature, plates were washed three times with 100 μL/well of ELISA wash solution, and then 100 μL/well of mouse anti-hepatitis C […] mAb (1 mg/mL stock diluted 1:1,500 in 10% FBS-TNE) was added.
(§10) 4. Following 2 hours of incubation at 37° C., plates were washed three times with 100 μL/well of ELISA wash solution, and then 100 μL/well of HRP-goat anti-mouse antibody (diluted 1:4,000 in 10% FBS-TNE) was added.
(§11) 4. After a one hour incubation period at 37° C., each plate was washed three times with 100 μL/well of ELISA wash solution. Color development was then initiated with 100 μL/well of OPD solution.
(§12) 5. After a 30 minute incubation period in the dark at room temperature, reactions were stopped by adding 100 μL of 2NH2SO4 to each well.
(§13) 6. The absorbance was measured at 490 nm on a Victor^3 V 1420 multilabel counter (Perkin Elmer). The percent inhibition of HCV replicon replication was calculated for each drug using an average of the duplicate wells.

[6] = test system: wild-type HCV replicon (GS4.1 cells); assay: microbe, parasite or virus in culture; conditions: Hepatitis C virus
Description: as §3, §4, §5, §6, §7, §8, §9, §10, §11, §12, §13

[7] = Cytotoxicity (MTS assay), 184R-A cells; type: cell-based; conditions: human, 184R-A cells (S282T), 184R-A (S282T), N = 3
Description: (§14) Cells were plated and treated with inhibitors as described above.

[8] = Cytotoxicity (MTS assay), GS4.1 cells, Example 18; type: cell-based, human; conditions: human, GS4.1 cells (wild-type); GS4.1 (wild-type), MTS assay, N = 3
Description: as §14

[9] = test system: GS4.1 cells; assay: Cytotoxicity (MTS assay), GS4.1 cells, Example 18; type: cell-based, human; conditions: wild-type or S282T replicon cells treated with up to 100 μM
Description: as §14

[10] = test system: GS4.1 cells; assay: Cytotoxicity of Compound 1 and RBV on GS4.1 cells using MTS assay (combination study); conditions: three days, 0.6× to 1.5× EC50, alone or in combination
Description: The readout of the assay was measured by the bioreduction of the yellow MTS tetrazolium compound to a purple formazan product. This conversion is mediated by NADPH or NADH in metabolically active cells and is therefore directly proportional to the number of live cells in a culture. Plates were setup as described above.
Cells were plated and treated with inhibitors using the drug matrix described above.
After three days of drug treatment, 20 μL of MTS was added to each well, and then plates were incubated at 37° C./5% CO2.

[11] = Cytotoxicity (MTS assay), 184R-D2 cells; type: cell-based; conditions: human, 184R-D2 cells (S282T), 184R-D2 (S282T), N = 3
Description: as §14

[12] = test system: HCV genotype 1b replicon (GS4.1 cells); assay: In vitro combination of Compound 1 and ribavirin on HCV replicon (NS4A ELISA; MacSynergy II, CombiTool, CalcuSyn); type: cell-based; conditions: Hepatitis C virus, 72 h, single-drug titration experiments, three days
Description: This setup was run in duplicate in each 96-well plate.
Cells were incubated with inhibitors for three days at 37° C./5% CO2.
After three days of drug treatment, media was removed from the plates via gentle tapping and the cells were fixed to the plates with 100 μL/well of 1:1 acetone:methanol.
After one minute of incubation at room temperature, plates were washed three times with 100 μL/well of ELISA wash solution and then blocked with 150 μL/well of 10% FBS-TNE.
After a one hour incubation period at 37° C., each plate was washed three times with 100 μL/well of ELISA wash solution. Color development was then initiated with 100 μL/well of OPD solution.
After a 30 minute incubation period in the dark at room temperature, reactions were stopped by adding 100 μL of 2NH2SO4 to each well.
The absorbance was measured at 490 nm on a Victor^3 V 1420 multilabel counter (Perkin Elmer).

[13] = test system: S282T HCV replicon (184R-A cells); assay: microbe, parasite or virus in culture; conditions: Hepatitis C virus
Description: 3. The 184R-A cell line was derived by culturing wild-type replicon cells in the presence of 1 to 5 μM of Compound 1 for >100 days.
as §3, §4, §5, §6, §7, §8, §9, §10, §11, §12, §13

Compound | EC50 [1] [µM] | CC50 [2] [µM] | CC50 [3] [µM] | EC50 [4] [µM] | EC50 [5] [µM] | EC50 [6] [µM] | CC50 at 3 days [7] [µM] | CC50 at 3 days [8] [µM] | in vitro cytotoxicity (MTS) [9] | in vitro cytotoxicity (MTS) [10] | CC50 at 3 days [11] [µM] | EC50 [12] [µM] | EC50 [13] [µM]
CC(C)(CO)C(=O)SCCOP(=O)(NCc1ccccc1)OC[C@H]1O[C@@H](n2cnc3c(=O)[nH]c(N)nc32)[C@](C)(O)[C@@H]1O (single isomer, unassigned; diastereomer 2) [Diastereomer 2] | 0.0568 ± 0.0006 | > 100 | > 100 | 0.244 ± 0.098 |  |  |  |  |  |  |  |  | 
NC(=O)c1ncn([C@@H]2O[C@H](CO)[C@@H](O)[C@H]2O)n1 [RBV, ribavirin, reference compound] |  |  |  |  | 17 ± 3.5 | 38 ± 2.8 | > 100 | > 100 | no evidence of in vitro cytotoxicity | no evidence of in vitro cytotoxicity | > 100 | 21.8 ± 3.6 | 12.3 ± 1.9
